Like-named read-outs stand apart in the source and are kept apart here.
Columns and labels:
[1] = system: hyperlipidemia caused by the administration of TRITON; experiment: Triton test: lipid regulating activity in hyperlipidemia caused by TRITON W. R.; type: in vivo, WISTAR male rats; conditions: Rattus norvegicus, po, 250 mg/kg orally, 6 hours and/or 24 hours
Method: In a first series of experiments, products were tested on a hyperlipidemia caused by the administration of TRITON according to the following procedure.
The tests were carried out on groups of five WISTAR male rats whose weight varied from 150 to 175 g.
The tested products were administered, orally in the form of a 3% aqueous solution of tragacanth gum in the ratio of 1 ml per 100 g of body weight, in an amount corresponding to 250 mg/kg.
To carry out these tests, a hyperlipidemia was caused in the animals, by means of the product marketed by the ROHM and HAAS Company under the name TRITON W. R.
On this hyperlipidemia the effects obtained by the administration of the active substances according to the invention, are observed.
The tests were carried out as follows:
the rats were fasted for 18 hours, then the TRITON W. R. was administered intravenously in 10% aqueous solution in the proportion of 200 mg/kg;
simultaneously 250 mg/kg of the product under test was administered orally;
6 hours and/or 24 hours later, blood assays were carried out conventionally.
to the total cholesterol, […]

[2] = system: atherosclerosis inducing diet (cholesterol, cholic acid, vitamine D2); experiment: Atherosclerosis inducing diet: biochemical exams; type: in vivo, Wistar female rats; set-up: CHOLESTEROL T, % reduction with respect to the control diet / CHOLESTEROL HDL, % with respect to the control diet / CHOLESTEROL LDL, % reduction with respect to the control diet / TRIGLYCERIDES, % reduction with respect to the control diet: concentration or dose not given beside the values; conditions: for TRIGLYCERIDES, % reduction with respect to the control diet / CHOLESTEROL HDL, % with respect to the control diet / CHOLESTEROL LDL, % reduction with respect to the control diet / CHOLESTEROL T, % reduction with respect to the control diet: 4 weeks administration; for CHOLESTEROL HDL, Score with respect to clofibrate / CHOLESTEROL LDL, Score with respect to clofibrate / CHOLESTEROL T, Score with respect to clofibrate / TRIGLYCERIDES, Score with respect to clofibrate: clofibrate counted as 1; for CHOLESTEROL T, % reduction with respect to the control diet: total cholesterol
Method: (§1) In a second experimental series, tha activity of certain products according to the invention were tested on animals which had received an atherosclerosis inducing diet for a long period.
(§2) The test was carried out on Wistar female rats, of weight about 160-180 g.
(§3) The animals received food coming from the National Nutrition plant of Villemoisson-sur-Orge, France, and denoted by the reference UAR AO3, enriched in cholesterol (0.5%) and in cholic acid (0.5%).
(§4) After 15 days of the atherosclerosis inducing diet and whilst maintaining the animals on an atherosclerosis inducing diet, they were given orally for 4 days 250.000 iu/kg of vitamine D2 marketed under the name Sterogyl 25H, in solution in olive oil.
(§5) Then the products under study were administered for 4 weeks, from the end of the administration of the lesion-inducing agent.
At the end of the study, biochemical examinations were carried out on all the animals [total cholesterol, high density lipoprotein (HDL) and cholesterol low density lipoprotein (LDL), and triglycerides].
(§6) Then the pecentage reduction with respect to the diet controls and the score were calculated, that is to say the ratio of the intensity of the activity of the product tested with respect to that of the activity of clofibrate, reckoned as 1.
Table IX gives the detailed results of the biochemical examination:
(a) in % reduction with respect to the control die;
(b) as score, with respect to the reference product, clofibrate, the latter being counted as 1.

[3] = system: atherosclerosis lesions; experiment: Atherosclerosis inducing diet: macroscopic exams (affected animals); type: in vivo, Wistar female rats; conditions: for Score with respect to the reference clofibrate (animals afflicted with lesions): clofibrate counted as 1; for AFFECTED ANIMALS %: macroscopic exams, TEM-diet 100
Method: as §1, §2, §3, §4, §5
(§7) At the end of the study, all the animals still alive were sacrificed, and various organs were removed, particularly the aorta, for histological study of the latter. Two criteria were examined: the number of atherosclerosis areas and the severity of the lesions.
as §6
Table X gives the results of macroscopic examinations:
(a) in % decrease in animals afflicted with lesions;
(b) as score with respect to the reference clofibrate, of which the score was counted as 1.

[4] = system: aorta; experiment: Atherosclerosis inducing diet: microscopic observations (aorta, histology); type: in vivo, Wistar female rats; set-up: HISTOLOGICAL QUOTATION, percentage reduction with respect to the diet controls / NUMBER OF ATHEROSCLEROTIC AREAS, percentage reduction with respect to the diet controls: concentration or dose not given beside the values; conditions: for NUMBER OF ATHEROSCLEROTIC AREAS: TEM-diet 160; for HISTOLOGICAL QUOTATION, score with respect to clofibrate / NUMBER OF ATHEROSCLEROTIC AREAS, score with respect to clofibrate: clofibrate counted as 1; for HISTOLOGICAL QUOTATION, percentage reduction with respect to the diet controls / HISTOLOGICAL QUOTATION: severity of the lesions; for HISTOLOGICAL QUOTATION: TEM-diet 132
Method: as §1, §2, §3, §4, §5, §7
Calculation of the figures was carried out in the following manner:
as regards the severity of the lesions, a quotation ranging from 0 for absence of a lesion to 5+ for the severest lesions was made, and this for each type of alteration concerned (increase of interlamellar spaces, interruption of elastic laminae, thickening of the elastic laminae, calcium deposition, mucopolysaccharide deposition); then all of the results per batch of animals were added;
as regards the number of atherosclerosis areas, by counting the latter and adding all the figures obtained per batch of animals.
as §6
Table XI gives the microscopic results with histological quotation as regards the severity of the lesions, and the number of atherosclerotic areas.

[5] = Acute toxicity, intraperitoneal, mice; conditions: mouse, in vivo, ip, intraperitoneally, read-out: lethal dose 50
Method: The acute toxicity is expressed by the lethal dose 50, that is to say the dose resulting in the death of 50% of the animals.
This study was carried out on mice, to which the products under test were administered intraperitoneally.
It was established as follows, for the following substances: […]

[6] = Toxicity of Compound No. 1 038, oral route, rats; type: in vivo; conditions: rat, in vivo, po
Excerpt: (§8) For Compound No. 1 038, the study of the toxicity has been carried out on rats and on mice to which the product has been administered by the oral route.
(§9) The results (expressed in g/kg) relative to LD50, LD0, and LD100 are gathered in the following table.

[7] = system: rats; experiment: Toxicity of Compound No. 1 038, oral route, rats; type: in vivo
Excerpt: as §8, §9

[8] = Toxicity of Compound No. 1 038, oral route, mice; type: in vivo; conditions: mouse, in vivo, po
Excerpt: as §8, §9

[9] = system: mice; experiment: Toxicity of Compound No. 1 038, oral route, mice; type: in vivo
Excerpt: as §8, §9

[10] = Subacute toxicity of compound No. 1 038; type: in vivo; conditions: about one month; 150,500 and 1 000 mg/kg
[11] = Toxicity, general statements; conditions: Compound No. 1 038: rats and mice, oral route; medicaments: general
[12] = read-out: Total cholesterol, % of decrease with respect to Triton control
[13] = read-out: Total lipids, % of decrease with respect to Triton control
[14] = read-out: Triglycerides, % of decrease with respect to Triton control

| Structure (SMILES) | change in vivo at 250 mg/kg [1, 12] [%] | change in vivo at 250 mg/kg [1, 13] [%] | change in vivo at 250 mg/kg [1, 14] [%] | TRIGLYCERIDES, % reduction with respect to the control diet [2] | CHOLESTEROL HDL, % with respect to the control diet [2] | CHOLESTEROL LDL, % reduction with respect to the control diet [2] | CHOLESTEROL HDL, Score with respect to clofibrate [2] | CHOLESTEROL LDL, Score with respect to clofibrate [2] | CHOLESTEROL T, Score with respect to clofibrate [2] | TRIGLYCERIDES, Score with respect to clofibrate [2] | CHOLESTEROL T, % reduction with respect to the control diet [2] | % decrease in animals afflicted with lesions [3] | Score with respect to the reference clofibrate (animals afflicted with lesions) [3] | AFFECTED ANIMALS % [3] | NUMBER OF ATHEROSCLEROTIC AREAS, percentage reduction with respect to the diet controls [4] | NUMBER OF ATHEROSCLEROTIC AREAS [4] [%] | HISTOLOGICAL QUOTATION, score with respect to clofibrate [4] | NUMBER OF ATHEROSCLEROTIC AREAS, score with respect to clofibrate [4] | HISTOLOGICAL QUOTATION, percentage reduction with respect to the diet controls [4] | LD50 [5] [mg/kg] | also measured |
| --- | --- | --- | --- | --- | --- | --- | --- | --- | --- | --- | --- | --- | --- | --- | --- | --- | --- | --- | --- | --- | --- |
| CCOC(=O)CCCNS(=O)(=O)c1cccc([N+](=O)[O-])c1 [compound 679] | -30 | -61 | -34 | 0% | +58,33% | -60,14% | 0,56 | 1,09 | 1,09 | 0 | -53,13% | 7,14% | 0,39 | 92,86% | 48,57% | 82 | 0,64 | 0,88 | 39,97% | – | HISTOLOGICAL QUOTATION [4]: 79% |
| CCOC(=O)CCCCCCCCCCNS(=O)(=O)c1cc(Cl)c([N+](=O)[O-])cc1OC [compound 502] | -16 | -45 | -32 | – | – | – | – | – | – | – | – | – | – | – | – | – | – | – | – | 3070 | – |
| CCOC(=O)C(C)(C)Oc1ccc(Cl)cc1 [CLOFIBRATE, clofibrate, reference compound] | – | – | – | -24,14% | +104,17% | -55,37% | 1,00 | 1,00 | 1,00 | 1,00 | -48,75% | 18,18% | 1,00 | 81,82% | 54,93% | 72 | 1,00 | 1,00 | 62,83% | – | HISTOLOGICAL QUOTATION [4]: 49% |
| O=C(O)CCCCCNS(=O)(=O)c1cccc([N+](=O)[O-])c1 [compound 675] | -19 | -45 | -27 | – | – | – | – | – | – | – | – | – | – | – | – | – | – | – | – | 930 | – |
| Nc1ccc(S(=O)(=O)NCCCCCC(=O)O)cc1 [compound 665] | -15 | -30 | -20 | – | – | – | – | – | – | – | – | – | – | – | – | – | – | – | – | > 6400 | – |
| COc1cc([N+](=O)[O-])c(Cl)cc1S(=O)(=O)NCCCCCC(=O)O [compound 362] | -10 | -39 | -88 | – | – | – | – | – | – | – | – | – | – | – | – | – | – | – | – | 1760 | – |
| CCOC(=O)CCCCCCCCCCNS(=O)(=O)c1ccc(OC)cc1 [compound 729] | – | – | -17 | – | – | – | – | – | – | – | – | – | – | – | – | – | – | – | – | > 6400 | – |
| CCOC(=O)CCCCCCCCCCNS(=O)(=O)c1cccc([N+](=O)[O-])c1 [compound 676] | -10 | -43 | -24 | – | – | – | – | – | – | – | – | – | – | – | – | – | – | – | – | > 6400 | – |
| COc1cc([N+](=O)[O-])c(Cl)cc1S(=O)(=O)NCCCC(=O)O [compound 387] | – | -39 | -90 | – | – | – | – | – | – | – | – | – | – | – | – | – | – | – | – | 3070 | – |
| O=C(O)CCCNS(=O)(=O)c1cccc(C(F)(F)F)c1 [Compound No. 1038, (trifluoromethyl-3 benzenesulfonylamino)-4 butyric acid] | – | – | – | -20,69% | +83,33% | -58,26% | 0,80 | 1,05 | 1,06 | 0,86 | -51,88% | 33,33% | 1,83 | 66,67% | 78,18% | 35 | 1,06 | 1,42 | 66,31% | – | HISTOLOGICAL QUOTATION [4]: 44%; LD50 ([6]; female): 15500 mg/kg; LD50 ([6]; male): 13000 mg/kg; LD0 ([7]; female): 5000 mg/kg; LD100 ([7]; female): > 20000 mg/kg; LD0 ([7]; male): 5000 mg/kg; LD100 ([7]; male): 20000 mg/kg; LD50 ([8]; female): 6600 mg/kg; LD50 ([8]; male): 6000 mg/kg; LD0 ([9]; female): 5000 mg/kg; LD100 ([9]; female): 9000 mg/kg; LD0 ([9]; male): 4000 mg/kg; LD100 ([9]; male): 9000 mg/kg; therapeutic index [10]: very satisfactory; toxicity (in words) [11]: presents no toxicity |

— patent publication US4613618A, “Method for treating disorders of lipid metabolism using benzene sulfonamides” (Choay S.A., priority 1981, dated 1986)
